What was measured:
[1] = test system: cultured neurons expressing MFN2 T105M or MFN2 R94Q; assay: Cultured mouse neurons expressing CMT2A MFN2 mutants; format: cell-based
Experimental: Neonatal mouse hippocampal neurons were cultured from brains of one day old Mfn2 T105M or non-transgenic sibling mouse pups as described. After 10 days of differentiating culture neurons were infected with Adeno-Cre to induce Mfn2 T105M expression or Adeno-βgal as a control (50 MOI). After an additional 72 hours mitofusin agonists or DMSO vehicle were added. For static confocal imaging neuronal mitochondria were labeled with adenoviral-expressed mitoGFP plus TMRE. Autophagy was measured by LC3 aggregation in neurons infected with adenoviral LC3-GFP. For time-lapse studies of mitochondrial trafficking bi-cistronic Adeno-Cre/GFP marked Cre expression and mitochondria were labeled with adeno-mitoDsRed. Confocal live cell images were acquired with a time-lapse of 1 frame every 90 seconds for 1 hour.

Mfn2 null MEFs = assay: Mitochondrial elongation (aspect ratio) fusogenicity assay; format: cell-based, mouse
From the text: A cultured murine embryonic fibroblast assay system was used in which mitochondrial elongation (an increase in aspect ratio) reflects enhanced mitochondrial fusion.
A pharmacophore model was generated based on the interactions of HR1 and HR2 domains in the calculated structural model of Mfn2 in the closed conformation. The key features included hydrophobic interactions involving Mfn2 HR1: Val372 and Met376, and aromatic interactions and hydrogen bonding involving Mfn2 HR1 His380. […] A library comprising ˜14 million commercially available compounds was prepared in silico and evaluated using PHASE to fit these criteria. Top ranked hits were clustered, and filtered based on pharmacological properties using Qikprop. The top 55 (see TABLE 4) commercially available small molecules conforming to the model were selected for functional screening and purchased in 1 mg aliquots. Each compound was dissolved to a stock concentration of 10 mM in DMSO and applied to Mfn2 null MEFs overnight at a final concentration of 1 mM. […] Images were acquired by confocal microscopy. Each compound was scored for fusogenicity (see e.g., FIG. 24A) and % cell death (see e.g., FIG. 24B).
Wild-type MEFs were prepared from E10.5 c57/bl6 mouse embryos. […] MEFs were subcultured in DMEM (4.5 g/L glucose) plus 10% fetal bovine serum, 1× nonessential amino acids, 2 mM L-glutamine, 100U/ml penicillin and 100 ug/ml streptomycin.
Cells were excited with 408 nm (Hoechst), […] (MitoTracker Green and Calcein AM, GFP), or 637 nm (TMRE, MitoTracker Orange, Ethidium homodimer-1, and AF594-Dextran) laser diodes. For mitochondrial elongation studies mitochondrial aspect ratio (long axis/short axis) was calculated using automated edge detection and Image J software. Mitochondrial depolarization was calculated as % of green mitochondria visualized on MitoTracker Green and TMRE merged images, expressed as green/(green+yellow mitochondria)×100.

[2] = test system: MEFs expressing CMT2A mutant MFN2; assay: Mitochondrial dysmorphology in MEFs expressing MFN2 mutants; format: cell-based, mouse; details: MFN2 T105M in MEFs
Experimental: Fusogenic activity of commercially available small-molecule candidate pharmacophores (TABLE 4), focusing on those having structures that mimicked Ser^378-phosphorylated (class A) and -unphosphorylated (class B) minipeptide amino acid side chains were assessed (see e.g., FIG. 5, TABLE 5). It was reasoned that simultaneous application of class A and B agonists could enhance mitofusin by acting on both MFN2 Ser^378 phosphorylation states. […] Therefore, Cpd A and B functionality were assimilated into a single molecule by creating Cpd A-B chimeras (see e.g., FIG. 11, FIG. 7, TABLE 6). […] On the basis of fluorescence resonance energy transfer (FRET) analysis of MFN2 labeled at the N and C termini, mitofusin agonists promoted an open MFN2 conformation favoring mitochondrial fusion, with a rank order paralleling that for HR2 binding and mitochondrial fusion (see e.g., FIG. 11G; compare to FIG. 11B and FIG. 11C), supporting allosteric activation. […]
Cells were excited with 408 nm (Hoechst), […] (MitoTracker Green and Calcein AM, GFP), or 637 nm (TMRE, MitoTracker Orange, Ethidium homodimer-1, and AF594-Dextran) laser diodes. For mitochondrial elongation studies mitochondrial aspect ratio (long axis/short axis) was calculated using automated edge detection and Image J software. […]

CC1CCCCC1NC(=O)NCCSc1nnc(C2CC2)n1-c1ccccc1 (racemic) [B-A/I, 1-(2-((5-cyclopropyl-4-phenyl-4H-1,2,4-triazol-3-yl)thio)ethyl)-3-(2-methylcyclohexyl)urea]
mitochondrial fragmentation/dysmorphology, hypopolarization, autophagy in neurons ([1]; MFN2 R94Q or T105M): concomitantly corrected
mitochondrial clumping and motility in neurons ([1]; MFN2 T105M): restored mitochondrial motility
fusogenic activity (mitochondrial elongation), in words (Mfn2 null MEFs): potently stimulated mitochondrial fusion
reversal of mitochondrial dysmorphology [2]: as effective as the combination of Cpds A+B
